Ki data for 9 molecules are collected here from BindingDB's records for doi:10.1080/14756360801915476 (Instituto De Parastiologia Y Biomedicina "Lopez-Neyra, 2009).

What all share (assay): Inhibition Assay
Common to all, as to settings: pH 8; 25 °C

One assay concerns the target T1, dCTP deaminase (Campylobacter jejuni subsp. jejuni serotype O:2 (strain ATCC 700819 / NCTC 11168), UniProt Q9PN07).
T1 sequence (Q9PN07 whole entry): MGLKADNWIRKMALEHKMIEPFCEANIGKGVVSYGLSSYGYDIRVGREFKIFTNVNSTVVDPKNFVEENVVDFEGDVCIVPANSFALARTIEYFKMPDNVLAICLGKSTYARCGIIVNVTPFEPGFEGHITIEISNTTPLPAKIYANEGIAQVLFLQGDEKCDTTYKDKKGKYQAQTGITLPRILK
The text has this:
(§1) Nucleotide hydrolysis was monitored by mixing enzyme and substrate with a rapid kinetic accessory (Hi-Tech Scientific) attached to a spectrophotometer (Cary 50). Protons, released through the hydrolysis of nucleotides, were neutralized with […] and monitored spectrophotometrically at the absorbance peak of the basic form of the indicator.

Assay [1] deals with T2, Deoxyuridine 5'-triphosphate nucleotidohydrolase (Plasmodium falciparum (isolate 3D7), UniProt Q8II92).
T2 sequence (Q8II92 whole entry): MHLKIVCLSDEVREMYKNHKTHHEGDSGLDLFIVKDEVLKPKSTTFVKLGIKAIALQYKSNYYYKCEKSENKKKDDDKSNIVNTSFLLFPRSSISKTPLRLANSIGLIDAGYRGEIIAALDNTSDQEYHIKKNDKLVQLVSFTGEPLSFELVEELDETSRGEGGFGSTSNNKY
Excerpt: as §1

In assay [2] the target is T3, Deoxyuridine 5'-triphosphate nucleotidohydrolase, mitochondrial (Homo sapiens, UniProt P33316).
T3 sequence (P33316 whole entry): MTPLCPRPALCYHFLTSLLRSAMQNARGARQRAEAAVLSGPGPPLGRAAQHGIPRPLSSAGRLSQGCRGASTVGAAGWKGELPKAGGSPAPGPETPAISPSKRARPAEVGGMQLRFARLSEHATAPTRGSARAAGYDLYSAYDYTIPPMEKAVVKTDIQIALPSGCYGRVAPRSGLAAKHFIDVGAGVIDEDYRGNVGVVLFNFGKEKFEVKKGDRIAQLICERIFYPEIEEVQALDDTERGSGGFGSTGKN
Excerpt: as §1

The Ki is the equilibrium dissociation constant of an inhibitor or competing ligand from its target. For the molecule `O=c1ccn(C2C=CC(COC(c3ccccc3)(c3ccccc3)c3ccccc3)O2)c(=O)[nH]1` (stereo not drawn) [dUTPase inhibitor, 2], the Ki on dCTP deaminase is 1 mM. That is a millimolar value.

Turning to `CC(C)(C)[Si](OCC1OC(n2ccc(=O)[nH]c2=O)CC1O)(c1ccccc1)c1ccccc1` (stereo not drawn), the values for the Ki in assay [1] and in assay [2] were 4.2 µM and 805 µM, respectively.

For `CC(C)[Si](OCC1OC(n2ccc(=O)[nH]c2=O)CC1O)(C(C)C)C(C)C` (stereo not drawn), the results for the Ki in assay [1] and in assay [2] were 227 µM and 1000 µM, respectively.

In the case of `O=C(OCC1C=CC(n2ccc(=O)[nH]c2=O)O1)C12CC3CC(CC(C3)C1)C2` (stereo not drawn) [dUTPase inhibitor, 3], the figures for the Ki (in assay [1]; in assay [2]; on dCTP deaminase) were 57.7 µM, 298 µM and 0.547 mM, respectively.

In the case of `O=c1ccn(C2CC(O)C(CO[Si](c3ccccc3)(c3ccccc3)c3ccccc3)O2)c(=O)[nH]1` (stereo not drawn), the Ki in assay [1] came to 2.8 µM; in assay [2], 908 µM.

Consider `O=c1ccn(C2CC(O)C(CNCc3ccccc3)O2)c(=O)[nH]1` (stereo not drawn), for which the Ki in assay [2] was 1000 µM.

`CC(C)(C)[Si](OCC1C=CC(n2ccc(=O)[nH]c2=O)O1)(c1ccccc1)c1ccccc1` (stereo not drawn) [dUTPase inhibitor, 5]: the inhibition constant Ki in assay [1] is 1.16 µM; in assay [2], above 1000 µM.

As to `CC(C)(C)[Si](C)(C)OCC1OC(n2ccc(=O)[nH]c2=O)CC1F` (stereo not drawn) [dUTPase inhibitor, 6], the Ki in assay [1] was 6.28 µM; in assay [2] it was above 1000 µM.

For the molecule `O=c1ccn(C2CC(O)C(COP(=O)(Oc3ccccc3)Oc3ccccc3)O2)c(=O)[nH]1` (stereo not drawn) [dUTPase inhibitor, 1], the values for the Ki (in assay [1]; in assay [2]; on dCTP deaminase) were 238 µM, 135 µM and 1 mM, respectively.
